These results are taken from ChEMBL document CHEMBL4622870, “Design, synthesis and evaluation of hydrazine and acyl hydrazone derivatives of 5-pyrrolidin-2-one as antifungal agents” (Bioorg Med Chem Lett, 2020).

Where only a bound is given, the exact number is not on record here.

Series [1] relates to Fusarium solani. Description: Antifungal activity against Fusarium solani assessed as fungal growth inhibition at 100 ug/ml by micro-dilution method relative to control. The series is classed as functional. The following applies: read-out: GI.
Series [2] has as its system Paecilomyces variotii. Description: Antifungal activity against Paecilomyces variotii assessed as fungal growth inhibition at 100 ug/ml by micro-dilution method relative to control. The series is classed as functional. The following applies: read-out: GI.
In series [3] the test system is Penicillium ochrochloron. As to the kind of experiment: Antifungal activity against Penicillium ochrochloron assessed as fungal growth inhibition at 100 ug/ml by micro-dilution method relative to control. The following applies: read-out: GI. The series is classed as functional.
Series [4] relates to Aspergillus oryzae. Description: Antifungal activity against Aspergillus oryzae assessed as fungal growth inhibition at 100 ug/ml by micro-dilution method relative to control. The class given is functional. As to conditions: read-out: GI.
Series [5] has as its system Botrytis cinerea. As to the kind of experiment: Antifungal activity against Botrytis cinerea assessed as fungal growth inhibition at 100 ug/ml by micro-dilution method relative to control. The series is classed as functional. The following applies: read-out: GI.
Series [6] deals with Alternaria alternata. Description: Antifungal activity against Alternaria alternata assessed as fungal growth inhibition at 100 ug/ml by micro-dilution method relative to control. The class given is functional. As to conditions: read-out: GI.
Series [7] relates to Cladosporium cladosporioides. As to the kind of experiment: Antifungal activity against Cladosporium cladosporioides assessed as fungal growth inhibition at 100 ug/ml by micro-dilution method relative to control. As to conditions: read-out: GI. The class given is functional.
The test system of series [8] is Sclerotinia sclerotiorum. As to the kind of experiment: Antifungal activity against Sclerotinia sclerotiorum assessed as fungal growth inhibition at 100 ug/ml by micro-dilution method relative to control. The series is classed as functional. The following applies: read-out: GI.
The test system of series [9] is Geotrichum candidum. As to the kind of experiment: Antifungal activity against Geotrichum candidum assessed as fungal growth inhibition at 100 ug/ml by micro-dilution method relative to control. As to conditions: read-out: GI. The series is classed as functional.
Series [10] has as its system Pichia kudriavzevii. Description: Antifungal activity against Candida krusei assessed as fungal growth inhibition at 100 ug/ml by micro-dilution method relative to control. As to conditions: read-out: GI. The class given is functional.
For series [11], the system named is Kluyveromyces marxianus. As to the kind of experiment: Antifungal activity against Candida pseudotropicalis assessed as fungal growth inhibition at 100 ug/ml by micro-dilution method relative to control. The series is classed as functional. The following applies: read-out: GI.
In series [12] the test system is Candida tropicalis. As to the kind of experiment: Antifungal activity against Candida tropicalis assessed as fungal growth inhibition at 100 ug/ml by micro-dilution method relative to control. As to conditions: read-out: GI. The series is classed as functional.
Series [13] deals with Fusarium solani. Description: Antifungal activity against Fusarium solani assessed as fungal growth inhibition by micro-dilution method. The series is classed as functional.
In series [14] the test system is Geotrichum candidum. As to the kind of experiment: Antifungal activity against Geotrichum candidum assessed as fungal growth inhibition by micro-dilution method. The class given is functional.
The test system of series [15] is HEK293. As to the kind of experiment: Cytotoxicity against human HEK293 cells assessed as effect on cell viability measured after 72 hrs by MTS assay. The series is classed as cell-based. The following applies: hek293, 72 h.
In series [16] the test system is Geotrichum candidum. As to the kind of experiment: Antifungal activity against Geotrichum candidum assessed as fungal growth inhibition at 50 ug/ml by micro-dilution method relative to control. As to conditions: read-out: GI. The series is classed as functional.
In series [17] the test system is Penicillium ochrochloron. As to the kind of experiment: Antifungal activity against Penicillium ochrochloron assessed as fungal growth inhibition by micro-dilution method. The class given is functional.
Series [18] relates to Cladosporium cladosporioides. As to the kind of experiment: Antifungal activity against Cladosporium cladosporioides assessed as fungal growth inhibition by micro-dilution method. The class given is functional.
The test system of series [19] is Candida tropicalis. Description: Antifungal activity against Candida tropicalis assessed as fungal growth inhibition by micro-dilution method. The series is classed as functional.
In series [20] the test system is Paecilomyces variotii. Description: Antifungal activity against Paecilomyces variotii assessed as fungal growth inhibition by micro-dilution method. The class given is functional.
The subject of series [21] is Aspergillus oryzae. As to the kind of experiment: Antifungal activity against Aspergillus oryzae assessed as fungal growth inhibition by micro-dilution method. The series is classed as functional.
The test system of series [22] is Alternaria alternata. Description: Antifungal activity against Alternaria alternata assessed as fungal growth inhibition by micro-dilution method. The class given is functional.
Series [23] deals with Sclerotinia sclerotiorum. As to the kind of experiment: Antifungal activity against Sclerotinia sclerotiorum assessed as fungal growth inhibition by micro-dilution method. The class given is functional.
Series [24] concerns Kluyveromyces marxianus. As to the kind of experiment: Antifungal activity against Candida pseudotropicalis assessed as fungal growth inhibition by micro-dilution method. The series is classed as functional.

Regarding `O=C1CC[C@@H](C(=O)N/N=C/c2ccc(CO)o2)N1`, the inhibition of growth at 100 µg/mL in [1] came to 72%; in series [2] it was 45%; in series [3], 28%; in [4], 0%; in series [5], 0%; in series [6] it was 42%. For the same compound, the inhibition of growth at 100 µg/mL in series [7] came to 0%; in series [8], 0%; in series [9], 88%; in [10], 66%; in [11] it was 28%; in series [12] it was 38%. In addition, the MIC50 in series [13] and in series [14] was over 75 µg/mL throughout. The Activity entry in [15] is on record as “Non-Toxic”. Further, in series [16], the inhibition of growth at 50 µg/mL was under 10%.
Consider `O=C1CC[C@@H](C(=O)N/N=C/c2ccc(Br)cc2)N1`, for which the inhibition of growth at 100 µg/mL in [1] turned out to be 100%; in [2], 0%; in series [3] it was 77%; in [4], 43%; in [5], 40%; in [6], 0%. Further, the inhibition of growth at 100 µg/mL in [7] turned out to be 72%; in series [8] it was 37%; in series [9] it was 100%; in [10], 0%; in [11], 2%; in [12], 92%. Besides, the MIC50 in [13] was 6.5 µg/mL; in [17], 5.3 µg/mL; in [18] it was 53 µg/mL; in series [14] it was 5.9 µg/mL; in series [19] it was over 75 µg/mL. In addition, in [15], the Activity entry is reported as “Non-Toxic”.
As for `O=C1CC[C@@H](C(=O)N/N=C/c2ccccc2)N1`, the inhibition of growth at 100 µg/mL in [1] turned out to be 59%; in [2] it was 46%; in series [3] it was 25%; in series [4], 0%; in [5] it was 0%; in [6], 20%. Also, the inhibition of growth at 100 µg/mL in [7] turned out to be 12%; in [8] it was 0%; in series [9] it was 83%; in series [10], 40%; in [11], 7%; in series [12] it was 15%. Besides, the MIC50 in series [14] was over 75 µg/mL. In [15], the Activity result is given as “Non-Toxic”. Also, the inhibition of growth at 50 µg/mL in series [16] was under 10%.
Take `O=C1CCC(NNc2ccccc2)N1` (racemic): the inhibition of growth at 100 µg/mL amounted to 100% in series [1]; 78% in series [2]; 90% in series [3]; 71% in series [4]; 62% in series [5]; 82% in [6]. Also, the inhibition of growth at 100 µg/mL in [7] amounted to 44%; in series [8], 76%; in [9], 0%; in series [10], 35%; in series [11], 96%; in [12] it was 89%. The MIC50 in [13] was 18.5 µg/mL; in series [20] it was 7.8 µg/mL; in series [17] it was 4.4 µg/mL; in series [21], 43.4 µg/mL; in [22], 3.6 µg/mL; in [23], 23 µg/mL. The figures for the MIC50 in series [24] and in series [19] were 0.6 µg/mL and 58.5 µg/mL, respectively. Moreover, the Activity result in [15] is reported as “Non-Toxic”.
For the compound `O=C1CCC(NNc2ccc(C(F)(F)F)cc2)N1` (racemic), the inhibition of growth at 100 µg/mL is 100% in [1]; 82% in [2]; 35% in [3]; 37% in [4]; 39% in series [5]; 2% in series [6]. For the same compound, the inhibition of growth at 100 µg/mL stood at 81% in series [7]; 40% in [8]; 22% in series [9]; 51% in series [10]; 38% in series [11]; 51% in series [12]. In addition, the figures for the MIC50 in series [13], in [20] and in series [18] were 11.7 µg/mL, 2 µg/mL and 3.4 µg/mL, respectively. In addition, the Activity result in series [15] is listed as “Non-Toxic”.
Consider `O=C1CCC(NNc2cc(F)ccc2F)N1` (racemic), for which the inhibition of growth at 100 µg/mL in [1] worked out at 95%; in series [2], 17%; in [3] it was 73%; in series [4], 0%; in series [5], 0%; in series [6], 72%. Also, the inhibition of growth at 100 µg/mL stood at 29% in series [7]; 28% in [8]; 25% in series [9]; 20% in series [10]; 65% in series [11]; 62% in series [12]. The MIC50 in [13] is 24.5 µg/mL; in series [17] it was 21.1 µg/mL; in [22], 18.6 µg/mL. In addition, in [15], the Activity entry is reported as “Non-Toxic”.
For `Cc1cc(O)no1` [HYMEXAZOL], the MIC50 in [13] was 15.6 µg/mL; in series [20], 57.2 µg/mL; in series [17], 62.2 µg/mL; in series [21], 45.7 µg/mL; in [22], 38.3 µg/mL; in [18], 28.9 µg/mL. Further, the MIC50 was 26.5 µg/mL in series [23] and over 50 µg/mL in [14].
As to `CC(=O)N1CCN(c2ccc(OCC3COC(Cn4ccnc4)(c4ccc(Cl)cc4Cl)O3)cc2)CC1` (stereo not drawn) [KETOCONAZOLE], the results for the MIC50 in series [14], in series [24] and in series [19] were 1.5 µg/mL, 9.6 µg/mL and 15.9 µg/mL, respectively.
